pEC50: −log10 of the molar value.
What follows are compounds tested against T1, human TLR7 (Homo sapiens, UniProt Q9NYK1) (assay: Human TLR7 Assay (SEAP reporter in HEK293 cells)). Details: HEK293 cell line expressing human TLR7 and pNiFty2-SEAP reporter, overnight incubation at 37° C., 0.1% DMSO; read-out: hTLR7 EC50.
T1 construct: expressed in transfected cells; host or cells: HEK293 cell line stably expressing the pNiFty2-SEAP reporter plasmid; TLR7 in pUNO vector, blasticidin selection
T1 sequence (Q9NYK1 27-1049): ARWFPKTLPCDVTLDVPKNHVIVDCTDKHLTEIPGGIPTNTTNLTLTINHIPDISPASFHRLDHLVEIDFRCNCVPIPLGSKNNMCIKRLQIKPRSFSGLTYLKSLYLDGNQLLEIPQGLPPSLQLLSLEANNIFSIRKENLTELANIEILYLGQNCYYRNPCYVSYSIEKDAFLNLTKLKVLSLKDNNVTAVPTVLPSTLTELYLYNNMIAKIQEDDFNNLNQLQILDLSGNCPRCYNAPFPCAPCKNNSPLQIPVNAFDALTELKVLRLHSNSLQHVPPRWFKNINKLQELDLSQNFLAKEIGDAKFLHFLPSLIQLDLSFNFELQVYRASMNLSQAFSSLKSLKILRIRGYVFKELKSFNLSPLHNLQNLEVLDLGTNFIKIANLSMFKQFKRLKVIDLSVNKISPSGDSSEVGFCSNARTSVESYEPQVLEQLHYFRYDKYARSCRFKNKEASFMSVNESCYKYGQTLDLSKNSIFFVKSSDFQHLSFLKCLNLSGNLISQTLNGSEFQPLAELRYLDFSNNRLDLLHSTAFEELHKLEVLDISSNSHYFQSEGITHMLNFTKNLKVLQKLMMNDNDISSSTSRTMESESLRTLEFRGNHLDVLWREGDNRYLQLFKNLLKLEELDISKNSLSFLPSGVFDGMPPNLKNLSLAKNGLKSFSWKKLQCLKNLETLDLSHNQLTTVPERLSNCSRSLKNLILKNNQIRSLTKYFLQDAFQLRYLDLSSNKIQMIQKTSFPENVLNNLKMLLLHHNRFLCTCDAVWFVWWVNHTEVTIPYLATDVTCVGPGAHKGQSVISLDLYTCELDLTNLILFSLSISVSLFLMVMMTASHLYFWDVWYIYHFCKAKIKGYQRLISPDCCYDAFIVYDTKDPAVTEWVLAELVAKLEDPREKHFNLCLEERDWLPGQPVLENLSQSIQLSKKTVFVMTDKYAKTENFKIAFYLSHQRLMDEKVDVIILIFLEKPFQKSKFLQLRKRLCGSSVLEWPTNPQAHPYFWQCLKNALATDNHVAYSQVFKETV
Assay type: cell-based
Text: The most common variant sequence of human TLR7 (represented by the EMBL sequence AF240467) was cloned into the mammalian cell expression vector pUNO and transfected into a HEK293 cell line already stably expressing the pNiFty2-SEAP reporter plasmid; integration of the reporter gene was maintained by selection with the antibiotic zeocin. Transfectants with stable TLR7 expression were selected using the antibiotic blasticidin. In this reporter cell-line, expression of secreted alkaline phosphatase (SEAP) is controlled by an NFkB/ELAM-1 composite promoter comprising five NFkB sites combined with the proximal ELAM-1 promoter. TLR signaling leads to the translocation of NFkB and activation of the promoter results in expression of the SEAP gene. TLR7-specific activation was assessed by determining the level of SEAP produced following overnight incubation of the cells at 37° C. with the standard compound in the presence of 0.1% (v/v) dimethylsulfoxide (DMSO). Concentration dependent induction of SEAP production by compounds was expressed as the concentration of compound which produced half of the maximal level of SEAP induction for that compound (EC50).
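Further: Read-out is secreted alkaline phosphatase made under an NFkB/ELAM-1 composite promoter, reporting TLR7-triggered NFkB activation.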

SMILES	pEC50
CCCCc1nc2c(N)nc3ccccc3c2n1CCCN(Cc1cccc(OCC(=O)OC(C)C)c1)C(=O)CN(CC)CC [Example 157, Isopropyl 2-[3-({N-[3-(4-amino-2-butyl-1H-imidazo[4,5-c]quinolin-1-yl)propyl]-2-(diethylamino)acetamido}methyl)phenoxy]acetate]	7.00
CCCCc1nc2c(N)nc3ccccc3c2n1CCCN(Cc1cccc(OCC(=O)OC)c1)C(=O)CN1CCN(CCOC)CC1 [Example 12, Methyl {3-[([3-(4-amino-2-butyl-1H-imidazo[4,5-c]quinolin-1-yl)propyl]{[4-(2-methoxyethyl)piperazin-1-yl]acetyl}amino)methyl]phenoxy}acetate]	6.36
CCOC(=O)COc1ccc(CN(CCCCn2c(CCOC)nc3c(N)nc4ccccc4c32)C(=O)NCCN2CCCCC2)cc1 [Example 125, Ethyl 2-{4-[(1-{4-[4-amino-2-(2-methoxyethyl)-1H-imidazo[4,5-c]quinolin-1-yl]butyl}-3-{2-(piperidin-1-yl)ethyl}ureido)methyl]phenoxy}acetate]	7.95
CCN(CC)CC(=O)N(CCCn1c(CCOC)nc2c(N)nc3ccccc3c21)Cc1ccc(F)c(OCC(=O)OC)c1 [Example 120, Methyl 2-{5-[(N-{3-[4-amino-2-(2-methoxyethyl)-1H-imidazo[4,5-c]quinolin-1-yl]propyl}-2-{diethylamino}acetamido)methyl]-2-fluorophenoxy}acetate]	6.56
CCOC(=O)C(C)(C)Oc1cccc(CN(CCCCn2c(CCOC)nc3c(N)nc4ccccc4c32)CCCN2CCOCC2)c1 [Example 136, Ethyl 2-{3-[({4-[4-amino-2-(2-methoxyethyl)-1H-imidazo[4,5-c]quinolin-1-yl]butyl}{3-morpholinopropyl}amino)methyl]phenoxy}-2-methylpropanoate]	6.95
CCOC(=O)COc1cccc(CN(CCCCn2c(CCOC)nc3c(N)nc4ccccc4c32)C(=O)CN(CC)CC)c1 [Example 44, Ethyl 2-{3-[(N-{4-[4-amino-2-(2-methoxyethyl)-1H-imidazo[4,5-c]quinolin-1-yl]butyl}-2-(diethylamino)acetamido)methyl]phenoxy}acetate]	7.64
CCN(CC)CC(=O)N(CCCn1c(CCOC)nc2c(N)nc3ccccc3c21)Cc1cccc(OCC(=O)OCC(C)C)c1 [Example 28, Isobutyl 2-{3-[(N-{3-[4-amino-2-(2-methoxyethyl)-1H-imidazo[4,5-c]quinolin-1-yl]propyl}-2-(diethylamino)acetamido)methyl]phenoxy}acetate]	7.30
COCCc1nc2c(N)nc3ccccc3c2n1CCCCN(CCN(C)C)Cc1cccc(OCC(=O)OC(C)C)c1 [Example 132, Isopropyl 2-{3-[({4-[4-amino-2-(2-methoxyethyl)-1H-imidazo[4,5-c]quinolin-1-yl]butyl}{2-[dimethylamino]ethyl}amino)methyl]phenoxy}acetate]	7.25
COCCc1nc2c(N)nc3ccccc3c2n1CCCN(Cc1cccc(OCC(=O)OC)c1)C(=O)CN1CCN(C)CC1 [Example 18, Methyl (3-{[[3-(4-amino-2-(2-methoxyethyl)-1H-imidazo[4,5-c]quinolin-1-yl)propyl][(4-methylpiperazin-1-yl)acetyl]amino]methyl}phenoxy)acetate]	5.89
COCCc1nc2c(N)nc3ccccc3c2n1CCOCCN(Cc1cccc(OCC(=O)OC(C)C)c1)C(=O)NCCN1CCCCC1 [Example 152, Isopropyl 2-(3-{[1-(2-{2-[4-amino-2-(2-methoxyethyl)-1H-imidazo[4,5-c]quinolin-1-yl]ethoxy}ethyl)-3-{2-(piperidin-1-yl)ethyl}ureido]methyl}phenoxy)acetate]	6.58
CCOC(=O)COc1cccc(CN(CCCCn2c(CCOC)nc3c(N)nc4ccccc4c32)C(=O)NCCCN2CCCCC2)c1 [Example 128, Ethyl 2-{3-[(1-{4-[4-amino-2-(2-methoxyethyl)-1H-imidazo[4,5-c]quinolin-1-yl]butyl}-3-{3-(piperidin-1-yl)propyl}ureido)methyl]phenoxy}acetate]	6.89
CCCCc1nc2c(N)nc3ccccc3c2n1CCCN(Cc1cccc(OC(C)(C)C(=O)OC)c1)C(=O)CN1CCCC1 [Example 169, Methyl 2-[3-({N-[3-(4-amino-2-butyl-1H-imidazo[4,5-c]quinolin-1-yl)propyl]-2-(pyrrolidin-1-yl)acetamido}methyl)phenoxy]-2-methylpropanoate]	6.81
CCN(CC)CC(=O)N(CCCn1c(CCOC)nc2c(N)nc3ccccc3c21)Cc1ccccc1OCC(=O)OC [Example 40, Methyl 2-{2-[(N-{3-[4-amino-2-(2-methoxyethyl)-1H-imidazo[4,5-c]quinolin-1-yl]propyl}-2-(diethylamino)acetamido)methyl]phenoxy}acetate]	6.61
COCCc1nc2c(N)nc3ccccc3c2n1CCCNC(=O)N(CCCN(C)C)Cc1ccc(OCC(=O)OC)cc1 [Example 22, Methyl [4-({[({3-[4-amino-2-(2-methoxyethyl)-1H-imidazo[4,5-c]quinolin-1-yl]propyl}amino)carbonyl][3-(dimethylamino)propyl]amino}methyl)phenoxy]acetate]	6.73
CCOC(=O)COc1cccc(CN(CCCn2c(CCOC)nc3c(N)nc4ccccc4c32)C(=O)CN(CC)CC)c1OC [Example 89, Ethyl 2-{3-[(N-{3-[4-amino-2-(2-methoxyethyl)-1H-imidazo[4,5-c]quinolin-1-yl]propyl}-2-{diethylamino}acetamido)methyl]-2-methoxyphenoxy}acetate]	7.02
CCOC(=O)COc1cccc(CN(CCCCn2c(CCOC)nc3c(N)nc4ccccc4c32)C(=O)NCCN2CCCCC2)c1 [Example 126, Ethyl 2-{3-[(1-{4-[4-amino-2-(2-methoxyethyl)-1H-imidazo[4,5-c]quinolin-1-yl]butyl}-3-{2-(piperidin-1-yl)ethyl}ureido)methyl]phenoxy}acetate]	7.33
COCCc1nc2c(N)nc3ccccc3c2n1CCCNCc1cccc(OCC(=O)OC)c1 [Example 15, Methyl (3-{[[3-(4-amino-2-(2-methoxyethyl)-1H-imidazo[4,5-c]quinolin-1-yl)propyl]amino]methyl}phenoxy)acetate]	6.74
CCCCc1nc2c(N)nc3ccccc3c2n1CCCN(Cc1cccc(OCC(=O)OC(C)C)c1)C(=O)CN(C)C [Example 159, Isopropyl 2-[3-({N-[3-(4-amino-2-butyl-1H-imidazo[4,5-c]quinolin-1-yl)propyl]-2-(dimethylamino)acetamido}methyl)phenoxy]acetate]	6.86
CCOC(=O)COc1cc(CN(CCCn2c(CCOC)nc3c(N)nc4ccccc4c32)C(=O)CN(CC)CC)ccc1F [Example 119, Ethyl 2-{5-[(N-{3-[4-amino-2-(2-methoxyethyl)-1H-imidazo[4,5-c]quinolin-1-yl]propyl}-2-{diethylamino}acetamido)methyl]-2-fluorophenoxy}acetate]	7.03
CCCCc1nc2c(N)nc3ccccc3c2n1CCCN(Cc1ccc(OCC(=O)OC)cc1)C(=O)CN1CCCCC1 [Example 6, Methyl (4-{[[3-(4-amino-2-butyl-1H-imidazo[4,5-c]quinolin-1-yl)propyl](piperidin-1-ylacetyl)amino]methyl}phenoxy)acetate]	6.77
CCOC(=O)COc1cccc(CN(CCn2c(CCOC)nc3c(N)nc4ccccc4c32)C(=O)CN(CC)CC)c1 [Example 101, Ethyl 2-{3-[(N-{2-[4-amino-2-(2-methoxyethyl)-1H-imidazo[4,5-c]quinolin-1-yl]ethyl}-2-{diethylamino}acetamido)methyl]phenoxy}acetate]	< 5.00
CCN(CC)CC(=O)N(CCCCn1c(CCOC)nc2c(N)nc3ccccc3c21)Cc1cccc(OCC(=O)OC(C)(C)C)c1 [Example 48, tert-Butyl 2-{3-[(N-{4-[4-amino-2-(2-methoxyethyl)-1H-imidazo[4,5-c]quinolin-1-yl]butyl}-2-{diethylamino}acetamido)methyl]phenoxy}acetate]	7.61
CCN(CC)CC(=O)N(CCCn1c(CCOC)nc2c(N)nc3ccccc3c21)Cc1cccc(OC(C)C(=O)OC)c1 (centres unmarked) [Example 51, Methyl 2-{3-[(N-{3-[4-amino-2-(2-methoxyethyl)-1H-imidazo[4,5-c]quinolin-1-yl]propyl}-2-{diethylamino}acetamido)methyl]phenoxy}propanoate]	7.37
